Data taken from patent publication US6849722B2, “Polymerized oligopeptide-surfactant chiral micelles” (Board of Supervisors of Louisiana State University and …, priority 1998, dated 2005).

What was measured:
[1] = Critical micelle concentration by surface tension measurement; type: physicochemical; settings: in pure water
Procedure: Table 1 compares the structural features and physicochemical properties of L-SUV and L-SUVV. The critical micelle concentration (“CMC”) for both chiral surfactants was measured by following a linear decrease in surface tension as surfactant concentration increased, up to a point. After this point, no appreciable change in surface tension was observed. The point of intersection of the two lines (the linear decrease and the flat line thereafter) was taken as the CMC of the surfactants. The greater hydrophobicity of L-SUVV compared to L-SUV gave the former a lower CMC. In addition, an increase in the molecular weight decreased the mobility of L-SUVV toward the injector end. Thus, L-SUVV eluted faster than L-SUV, as it was carried more rapidly by bulk electroosmotic flow (EOF) towards the detection window.
All surfactants in this study were synthesized according to the procedure of Wang, J.; Warner, I. M. Anal. Chem. 1994, 66, 3773-3776. […] The critical micelle concentrations of the surfactants were determined by surface tension measurements as previously described. […] These numbers were calculated from average molecular weights as determined by ultracentrifugation. All monomers and polymers used in this study were 99% pure or better, as determined from elemental analysis.

[2] = Effective electrophoretic mobility by capillary zone electrophoresis/indirect photometric detection; type: physicochemical; settings: 100 mM boric acid and 5 mM Na2B4O7, pH 8.0; NMS light-absorbing electrolyte
[3] = cited from earlier work

Substance: sodium N-undecylenyl-L-valine-L-valine [L-U-Val-Val]
- critical micelle concentration (CMC) [1]: 10 mM
- effective electrophoretic mobility (μep) [2]: −1.2 × 10^−4 cm^−2 V^−1 s^−1

Substance: tris (hydroxymethyl)aminomethane
- pKa [3]: around 8
